# Reference: patent US6737383B1, “Herbicidal oxadiazolidines” (priority 1999, dated 2004)
# How the values were obtained:
# bedstraw = assay: Test B pre/postemergence bedstraw; format: in vivo, Galium aparine; details: Preemergence; for Bedstraw plant response rating: scale of 0 to 10 where 0 is no effect and 10 is complete control
# In short: (§1)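 Response is a visual 0-to-10 score relative to untreated plants, where 0 means no effect and 10 means complete control, taken twelve to sixteen days after application. Treatments went onto soil at planting and onto foliage of 1- to 4-leaf plants, using a surfactant-containing non-phytotoxic solvent.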
# surinam grass = assay: Test B pre/postemergence surinam grass; format: in vivo, Brachiaria decumbens
# In short: as §1
# cocklebur = assay: Test B pre/postemergence cocklebur; format: in vivo, Xanthium strumarium; details: for Cocklebur plant response rating: scale of 0 to 10 where 0 is no effect and 10 is complete control
# In short: as §1
# corn = assay: Test B pre/postemergence corn; format: in vivo, Zea mays; details: for Corn plant response rating: scale of 0 to 10 where 0 is no effect and 10 is complete control
# In short: as §1
# crabgrass = assay: Test B pre/postemergence crabgrass; format: in vivo, Digitaria sanguinalis; details: for Crabgrass plant response rating: scale of 0 to 10 where 0 is no effect and 10 is complete control
# In short: as §1
# giant foxtail = assay: Test B pre/postemergence giant foxtail; format: in vivo, Setaria faberii; details: for Giant foxtail plant response rating: scale of 0 to 10 where 0 is no effect and 10 is complete control
# In short: as §1
# morningglory = assay: Test B pre/postemergence morningglory; format: in vivo, Ipomoea hederacea; details: for Morningglory plant response rating: scale of 0 to 10 where 0 is no effect and 10 is complete control
# In short: as §1
# pigweed = assay: Test B pre/postemergence pigweed; format: in vivo, Amaranthus retroflexus; details: for Redroot pigweed plant response rating: scale of 0 to 10 where 0 is no effect and 10 is complete control
# In short: as §1
# rape = assay: Test B pre/postemergence rape; format: in vivo, Brassica napus; details: for Rape plant response rating: scale of 0 to 10 where 0 is no effect and 10 is complete control
# In short: as §1
# soybean = assay: Test B pre/postemergence soybean; format: in vivo, Glycine max; details: for Soybean plant response rating: scale of 0 to 10 where 0 is no effect and 10 is complete control
# In short: as §1
# sugar beet = assay: Test B pre/postemergence sugar beet; format: in vivo, Beta vulgaris; details: for Sugarbeets plant response rating: scale of 0 to 10 where 0 is no effect and 10 is complete control
# In short: as §1
# velvetleaf = assay: Test B pre/postemergence velvetleaf; format: in vivo, Abutilon theophrasti; details: for Velvetleaf plant response rating: scale of 0 to 10 where 0 is no effect and 10 is complete control
# In short: as §1
# wheat = assay: Test B pre/postemergence wheat; format: in vivo, Triticum aestivum; details: for Wheat plant response rating: scale of 0 to 10 where 0 is no effect and 10 is complete control
# In short: as §1
# purple nutsedge = assay: Test B pre/postemergence purple nutsedge; format: in vivo, Cyperus rotundus; details: for Nutsedge plant response rating: scale of 0 to 10 where 0 is no effect and 10 is complete control
# In short: as §1
# duck salad = assay: Test B flood test duck salad; format: in vivo, Heteranthera limosa
# In short: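 Each value is a visual injury score relative to controls, with 10 meaning complete control and 0 no effect. Evaluation took place twelve to sixteen days after the 2-leaf-stage plants were treated and kept in the greenhouse.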
# [1] = Postemergence, Rate 125 g/ha, scale 0 to 10, 0 is no effect, 10 is complete control
# [2] = Preemergence, Rate 62 g/ha, scale 0 to 10 (0 no effect, 10 complete control)
# [3] = Rate 500 g/ha, Postemergence, scale 0 to 10, 0 no effect, 10 complete control
structure (smiles),measurement,setting,value
CCC(CC)n1c(=O)on(C(=O)N(c2ccccc2)C(C)C)c1=O [Compound 354],"Plant response rating, Bedstraw","bedstraw; Rate 62 g/ha, scale 0 to 10 (0 no effect, 10 complete control)",0
same,Bedstraw plant response rating (0 to 10 scale),bedstraw; Rate 125 g/ha,0
same,Bedstraw plant response rating,bedstraw; Rate 250 g/ha,0
same,Bedstraw plant response rating,bedstraw; Rate 500 g/ha,0
same,"Plant response rating, B. signalgrass",surinam grass; [1],0
same,"Plant response rating, B. signalgrass",surinam grass; [2],1
same,"B. signalgrass plant response rating (0 to 10 scale, 0 is no effect, 10 is complete control)","surinam grass; Preemergence, Rate 125 g/ha",5
same,B. signalgrass plant response rating,"surinam grass; Preemergence, Rate 250 g/ha, scale of 0 to 10 where 0 is no effect and 10 is complete control",5
same,B. signalgrass plant response rating,"surinam grass; Preemergence, Rate 500 g/ha, scale of 0 to 10 where 0 is no effect and 10 is complete control",5
same,B. signalgrass plant response rating,"surinam grass; Rate 62 g/ha, Postemergence, scale of 0 to 10 where 0 is no effect and 10 is complete control",0
same,"Plant response rating, B. signalgrass","surinam grass; Rate 250 g/ha, Postemergence, scale of 0 to 10 where 0 is no effect and 10 is complete control",0
same,"Plant response rating, B. signalgrass",surinam grass; [3],2
same,"Plant response rating, Cocklebur",cocklebur; [1],0
same,"Plant response rating, Cocklebur",cocklebur; [2],0
same,Cocklebur plant response rating (0 to 10 scale),"cocklebur; Preemergence, Rate 125 g/ha",0
same,Cocklebur plant response rating,"cocklebur; Preemergence, Rate 250 g/ha",0
same,Cocklebur plant response rating,"cocklebur; Rate 62 g/ha, Postemergence",0
same,"Plant response rating, Cocklebur",cocklebur; [3],1
same,"Plant response rating, Corn",corn; [1],0
same,"Plant response rating, Corn",corn; [2],0
same,Corn plant response rating (0 to 10 scale),"corn; Preemergence, Rate 125 g/ha",0
same,Corn plant response rating,"corn; Preemergence, Rate 250 g/ha",3
same,Corn plant response rating,"corn; Preemergence, Rate 500 g/ha",6
same,Corn plant response rating,"corn; Rate 62 g/ha, Postemergence",0
same,"Plant response rating, Corn",corn; [3],0
same,"Plant response rating, Crabgrass",crabgrass; [1],2
same,"Plant response rating, Crabgrass",crabgrass; [2],9
same,Crabgrass plant response rating (0 to 10 scale),"crabgrass; Preemergence, Rate 125 g/ha",9
same,Crabgrass plant response rating,"crabgrass; Preemergence, Rate 250 g/ha",9
same,Crabgrass plant response rating,"crabgrass; Preemergence, Rate 500 g/ha",10
same,Crabgrass plant response rating,"crabgrass; Rate 62 g/ha, Postemergence",0
same,"Plant response rating, Crabgrass",crabgrass; [3],3
same,"Plant response rating, Giant foxtail",giant foxtail; [1],4
same,"Plant response rating, Giant foxtail",giant foxtail; [2],10
same,Giant foxtail plant response rating (0 to 10 scale),"giant foxtail; Preemergence, Rate 125 g/ha",10
same,Giant foxtail plant response rating,"giant foxtail; Preemergence, Rate 250 g/ha",10
same,Giant foxtail plant response rating,"giant foxtail; Preemergence, Rate 500 g/ha",10
same,Giant foxtail plant response rating,"giant foxtail; Rate 62 g/ha, Postemergence",0
same,"Plant response rating, Giant foxtail",giant foxtail; [3],9
same,"Plant response rating, Morningglory",morningglory; [1],5
same,"Plant response rating, Morningglory",morningglory; [2],0
same,Morningglory plant response rating (0 to 10 scale),"morningglory; Preemergence, Rate 125 g/ha",0
same,Morningglory plant response rating,"morningglory; Preemergence, Rate 250 g/ha",0
same,Morningglory plant response rating,"morningglory; Preemergence, Rate 500 g/ha",0
same,Morningglory plant response rating,"morningglory; Rate 62 g/ha, Postemergence",0
same,"Plant response rating, Morningglory",morningglory; [3],8
same,"Plant response rating, Redroot pigweed",pigweed; [1],3
same,"Plant response rating, Redroot pigweed",pigweed; [2],5
same,Redroot pigweed plant response rating (0 to 10 scale),"pigweed; Preemergence, Rate 125 g/ha",7
same,Redroot pigweed plant response rating,"pigweed; Preemergence, Rate 250 g/ha",10
same,Redroot pigweed plant response rating,"pigweed; Preemergence, Rate 500 g/ha",10
same,Redroot pigweed plant response rating,"pigweed; Rate 62 g/ha, Postemergence",2
same,"Plant response rating, Redroot pigweed",pigweed; [3],7
same,"Plant response rating, Rape",rape; [1],0
same,"Plant response rating, Rape",rape; [2],0
same,Rape plant response rating (0 to 10 scale),"rape; Preemergence, Rate 125 g/ha",1
same,Rape plant response rating,"rape; Preemergence, Rate 250 g/ha",5
same,Rape plant response rating,"rape; Preemergence, Rate 500 g/ha",5
same,Rape plant response rating,"rape; Rate 62 g/ha, Postemergence",0
same,"Plant response rating, Rape",rape; [3],4
same,"Plant response rating, Soybean",soybean; [1],5
same,"Plant response rating, Soybean",soybean; [2],0
same,Soybean plant response rating (0 to 10 scale),"soybean; Preemergence, Rate 125 g/ha",0
same,Soybean plant response rating,"soybean; Preemergence, Rate 250 g/ha",0
same,Soybean plant response rating,"soybean; Preemergence, Rate 500 g/ha",1
same,Soybean plant response rating,"soybean; Rate 62 g/ha, Postemergence",3
same,"Plant response rating, Soybean",soybean; [3],7
same,"Plant response rating, Sugarbeets",sugar beet; [1],1
same,"Plant response rating, Sugarbeets",sugar beet; [2],0
same,Sugarbeets plant response rating (0 to 10 scale),"sugar beet; Preemergence, Rate 125 g/ha",0
same,Sugarbeets plant response rating,"sugar beet; Preemergence, Rate 250 g/ha",2
same,Sugarbeets plant response rating,"sugar beet; Preemergence, Rate 500 g/ha",6
same,Sugarbeets plant response rating,"sugar beet; Rate 62 g/ha, Postemergence",0
same,"Plant response rating, Sugarbeets",sugar beet; [3],3
same,"Plant response rating, Velvetleaf",velvetleaf; [1],0
same,"Plant response rating, Velvetleaf",velvetleaf; [2],1
same,Velvetleaf plant response rating (0 to 10 scale),"velvetleaf; Preemergence, Rate 125 g/ha",5
same,Velvetleaf plant response rating,"velvetleaf; Preemergence, Rate 250 g/ha",6
same,Velvetleaf plant response rating,"velvetleaf; Preemergence, Rate 500 g/ha",7
same,Velvetleaf plant response rating,"velvetleaf; Rate 62 g/ha, Postemergence",0
same,"Plant response rating, Velvetleaf",velvetleaf; [3],2
same,"Plant response rating, Wheat",wheat; [1],0
same,"Plant response rating, Wheat",wheat; [2],0
same,Wheat plant response rating (0 to 10 scale),"wheat; Preemergence, Rate 125 g/ha",0
same,Wheat plant response rating,"wheat; Preemergence, Rate 250 g/ha",0
same,Wheat plant response rating,"wheat; Preemergence, Rate 500 g/ha",2
same,Wheat plant response rating,"wheat; Rate 62 g/ha, Postemergence",0
same,"Plant response rating, Wheat",wheat; [3],0
same,"Plant response rating, Nutsedge",purple nutsedge; [1],0
same,"Plant response rating, Nutsedge",purple nutsedge; [2],0
same,Nutsedge plant response rating (0 to 10 scale),"purple nutsedge; Preemergence, Rate 125 g/ha",0
same,Nutsedge plant response rating,"purple nutsedge; Preemergence, Rate 250 g/ha",0
same,Nutsedge plant response rating,"purple nutsedge; Preemergence, Rate 500 g/ha",0
same,Nutsedge plant response rating,"purple nutsedge; Rate 62 g/ha, Postemergence",0
same,"Plant response rating, Nutsedge",purple nutsedge; [3],0
same,"Plant response rating, Ducksalad","duck salad; Postemergence (flood test), Rate 125 g/ha, scale 0 to 10, 0 is no effect, 10 is complete control",3
same,Ducksalad plant response rating,"duck salad; Rate 62 g/ha, Postemergence (flood test species), scale of 0 to 10 where 0 is no effect and 10 is complete control",0
same,"Plant response rating, Ducksalad (0 to 10 scale, 0 is no effect, 10 is complete control)","duck salad; Rate 62 g/ha, flood test species, Pre-emergence, visual evaluation after twelve to sixteen days",0
same,Ducksalad plant response rating,"duck salad; Rate 125 g/ha, Pre-emergence, flood test species, scale 0 to 10 where 0 is no effect and 10 is complete control",0
same,Ducksalad plant response rating,"duck salad; Rate 250 g/ha, Pre-emergence, flood-test species, scale 0 to 10, 0 is no effect, 10 is complete control",0
same,"Plant response rating, Ducksalad","duck salad; Rate 500 g/ha, listed under Postemergence (flood test species), scale 0 to 10, 0 no effect, 10 complete control",5
same,Ducksalad plant response rating,"duck salad; Rate 500 g/ha, Pre-emergence, flood test species, scale 0 to 10 (0 no effect, 10 complete control)",0
